What all share (assay): ≥ marks a high value that may be exact or a test limit, other limits are often not marked, values filed in µg/mL are converted to µM
The test system of assay [1] is Pseudomonas aeruginosa PAO1.
The test system of assay [2] is Streptococcus pyogenes M1T1 5448.
In assay [3] the test system is Escherichia coli BL21.
Assay [4] relates to Salmonella sp.
Assay [5] has as its system Staphylococcus aureus ATCC 2592.
In assay [6] the test system is Bacillus licheniformis X39.
For assay [7], the system named is Psychrobacter faecalis X29.
Assay [8] deals with Rhodococcus rhodochrous X15.
For assay [9], the system named is Candida albicans ATCC 10231.
In assay [10] the test system is Aureobasidium pullulans.
For assay [11], the system named is Bacillus megaterium.
The subject of assay [12] is Corynebacterium glutamicum ATCC 13032.
Assay [13] relates to Micrococcus luteus.
The subject of assay [14] is Pseudomonas aeruginosa ATCC 27853.
Assay [15] deals with Staphylococcus aureus ATCC 9144.
In assay [16] the test system is Bacillus subtilis ATCC 23857.
Assay [17] concerns Escherichia coli ATCC 25922.
Assay [18] has as its system Pseudomonas aeruginosa MR3007.
For assay [19], the system named is Staphylococcus aureus 930918-3.
For assay [20], the system named is Staphylococcus aureus ATCC 33591.
Assay [21] has as its system Streptococcus gordonii Challis DL1.
In assay [22] the test system is Streptococcus sanguinis NY101.
The subject of assay [23] is Enterococcus faecalis.
For assay [24], the system named is Streptococcus mitis ATCC 903.
In assay [25] the test system is Escherichia coli W3110.
Assay [26] relates to Staphylococcus aureus.
Assay [27] relates to Streptococcus mutans UA159.
Assay [28] concerns Streptococcus sobrinus ATCC 33478.
Assay [29] has as its system Pseudomonas aeruginosa PAK.
Assay [30] has as its system Candida albicans FRR 5580.
For assay [31], the system named is Pseudomonas aeruginosa ATCC 9027.
Assay [32] concerns Staphylococcus aureus ATCC 25923.

Structures are written as SMILES. Values after ≈ are worked out from the molar mass of the structure shown.

The term MIC denotes the lowest concentration found to suppress growth. A high value points to a less susceptible organism. For the molecule `CC[C@H](C)[C@H](NC(=O)[C@H](CCCCN)NC(=O)[C@H](CCCCN)NC(=O)[C@H](Cc1c[nH]c2ccccc12)NC(=O)[C@H](CCC(=O)O)NC(=O)[C@H](CC(N)=O)NC(=O)[C@@H](NC(=O)[C@@H](NC(=O)[C@H](CCCCN)NC(=O)[C@H](CCCCN)NC(=O)[C@H](CC(C)C)NC(=O)[C@H](CCCN=C(N)N)NC(=O)[C@H](CC(N)=O)NC(=O)[C@H](Cc1ccccc1)NC(=O)[C@@H](NC(=O)[C@H](CCCCN)NC(=O)[C@H](CCC(=O)O)NC(=O)[C@@H](NC(=O)CNC(=O)[C@H](C)N)[C@@H](C)O)[C@@H](C)CC)[C@@H](C)O)[C@@H](C)CC)C(=O)N[C@@H](C)C(=O)N[C@@H](CCCCN)C(=O)N[C@@H](CCCN=C(N)N)C(=O)N[C@@H](C)C(=O)N[C@@H](Cc1c[nH]c2ccccc12)C(=O)O` [AGTEKIFNRLKKTINEWKKIAKRAW], the minimal inhibitory concentration (MIC) came to 16 µM (≈ 48.5 µg/mL) in assay [1], 8 µM (≈ 24.2 µg/mL) in assay [2] and 4 µM (≈ 12.1 µg/mL) in assay [3].
`CC[C@H](C)[C@H](NC(=O)[C@H](CCCCN)NC(=O)[C@H](CCCCN)NC(=O)CNC(=O)[C@H](CCC(=O)O)NC(=O)[C@H](CCC(N)=O)NC(=O)[C@@H](NC(=O)[C@@H](NC(=O)[C@H](CCCCN)NC(=O)[C@H](CCCCN)NC(=O)[C@H](CC(C)C)NC(=O)[C@H](CCCN=C(N)N)NC(=O)[C@H](CCC(N)=O)NC(=O)[C@H](Cc1ccccc1)NC(=O)[C@@H](NC(=O)[C@H](CCCCN)NC(=O)[C@H](CCC(=O)O)NC(=O)[C@@H](NC(=O)CNC(=O)[C@H](C)N)[C@@H](C)O)[C@@H](C)CC)[C@@H](C)O)[C@@H](C)CC)C(=O)N[C@@H](C)C(=O)N[C@@H](CCCCN)C(=O)N[C@@H](CCCN=C(N)N)C(=O)N[C@@H](Cc1c[nH]c2ccccc12)C(=O)N[C@@H](Cc1c[nH]c2ccccc12)C(=O)O` [AGTEKIFQRLKKTIQEGKKIAKRWW]: the MIC came to 16 µM (≈ 48.7 µg/mL) in assay [1], 0.125 µM (≈ 0.381 µg/mL) in [2] and 0.25 µM (≈ 0.761 µg/mL) in assay [3].
In turn, `CC[C@H](C)[C@H](NC(=O)[C@H](C)NC(=O)CNC(=O)[C@@H](NC(=O)[C@@H](N)Cc1ccccc1)[C@@H](C)CC)C(=O)N[C@@H](C)C(=O)N[C@@H](CCCN=C(N)N)C(=O)N[C@@H](CC(C)C)C(=O)N[C@@H](CC(C)C)C(=O)N[C@@H](CO)C(=O)N[C@@H](CCCCN)C(=O)N[C@H](C(=O)N[C@@H](Cc1ccccc1)C(=O)O)[C@@H](C)CC` [FIGAIARLLSKIF] displayed an MIC in assay [4] of no less than 90.5 µM.
On to `CC[C@H](C)[C@@H]1NC(=O)[C@H](CCCCN)NC(=O)[C@@H](NC(=O)[C@@H](NC(=O)[C@@H](NC(=O)[C@H](CCC(N)=O)NC(=O)[C@@H]2CCCN2C(=O)[C@H](CC(C)C)NC(=O)[C@H](Cc2ccccc2)NC(=O)[C@H](CC(N)=O)NC(=O)[C@H](C)NC(=O)[C@@H](NC(=O)[C@@H](NC(=O)CNC(=O)[C@H](C)NC(=O)[C@H](CC(C)C)NC(=O)[C@H](CC(C)C)NC(=O)[C@@H]2CCCN2C(=O)[C@H](CC(C)C)NC(=O)[C@@H](N)Cc2ccccc2)C(C)C)C(C)C)[C@@H](C)CC)[C@@H](C)CC)CSSC[C@@H](C(=O)O)NC(=O)[C@H](CCCCN)NC(=O)[C@H](CCCN=C(N)N)NC(=O)[C@H](C)NC1=O` [FLPLLAGVVANFLPQIICKIARKC], for which the MIC is 2.4 µM (≈ 6.3 µg/mL) in [5], 9.51 µM (≈ 25 µg/mL) in [6], 4.76 µM (≈ 12.5 µg/mL) in assay [7] and 1.18 µM (≈ 3.1 µg/mL) in assay [8].
For `C[C@H](NC(=O)[C@H](CCCCN)NC(=O)[C@H](Cc1c[nH]c2ccccc12)NC(=O)CNC(=O)[C@H](Cc1c[nH]c2ccccc12)NC(=O)[C@@H]1CCCN1C(=O)[C@H](CCCCN)NC(=O)[C@H](CCCCN)NC(=O)CN)C(=O)N[C@@H](CCCCN)C(N)=O` [GKKPWGWKAK], the MIC was 105 µM (≈ 125 µg/mL) in [9]; no less than 52.7 µM in assay [10]; 3.29 µM (≈ 3.9 µg/mL) in assay [11]; 13.2 µM (≈ 15.6 µg/mL) in assay [12]; no less than 211 µM in assay [13]; greater than 211 µM in [14]. The MIC was no less than 211 µM in [15], no less than 211 µM in assay [16] and greater than 211 µM in [17].
On to `CC[C@H](C)[C@H](NC(=O)[C@H](CCCCN)NC(=O)[C@H](CCC(N)=O)NC(=O)CNC(=O)[C@@H](NC(=O)[C@H](CCCCN)NC(=O)[C@H](CCCCN)NC(=O)[C@H](CC(C)C)NC(=O)[C@H](CCCCN)NC(=O)[C@H](CCC(=O)O)NC(=O)[C@H](CCCCN)NC(=O)[C@@H](NC(=O)[C@@H](N)CCCCN)[C@@H](C)CC)[C@@H](C)CC)C(=O)O` [KIKEKLKKIGQKI], for which the MIC in [18], in assay [19] and in assay [20] was no less than 160 µM each time.
On to `CC[C@H](C)[C@H](NC(=O)[C@H](Cc1cnc[nH]1)NC(=O)[C@H](CCCCN)NC(=O)[C@@H](NC(=O)[C@@H](N)CC(C)C)[C@@H](C)CC)C(=O)N[C@@H](CC(C)C)C(=O)N[C@@H](Cc1cnc[nH]1)C(=O)N[C@@H](CCCN=C(N)N)C(=O)N[C@@H](CC(C)C)C(N)=O` [LIKHILHRL], for which the minimum inhibitory concentration (MIC) in [21] was no less than 438 µM; in [22], no less than 438 µM; in [23] it was no less than 438 µM; in assay [24], no less than 438 µM; in [25], no less than 438 µM; in [26], greater than 438 µM. Besides, the MIC was no less than 109 µM in [27], no less than 438 µM in assay [28] and no less than 438 µM in [29].
Consider `NCCCC[C@H](NC(=O)[C@H](Cc1c[nH]c2ccccc12)NC(=O)[C@H](Cc1c[nH]c2ccccc12)NC(=O)[C@@H](N)CCCN=C(N)N)C(=O)N[C@@H](Cc1c[nH]c2ccccc12)C(=O)N[C@@H](Cc1c[nH]c2ccccc12)C(N)=O` [RWWKWW], for which the minimum inhibitory concentration (MIC) is no less than 61.1 µM in assay [30] and 30.6 µM (≈ 32 µg/mL) in assay [31].
For `NCCCC[C@H](NC(=O)[C@H](Cc1c[nH]c2ccccc12)NC(=O)[C@H](Cc1c[nH]c2ccccc12)NC(=O)[C@H](CCCN=C(N)N)NC(=O)[C@H](Cc1c[nH]c2ccccc12)NC(=O)[C@@H](N)Cc1c[nH]c2ccccc12)C(=O)N[C@@H](Cc1c[nH]c2ccccc12)C(=O)N[C@@H](Cc1c[nH]c2ccccc12)C(N)=O` [WWRWWKWW], the minimum inhibitory concentration (MIC) in assay [32] is 5.64 µM (≈ 7.99 µg/mL); in [30], no less than 45.1 µM; in [26], 2.82 µM (≈ 4 µg/mL); in [31], 22.5 µM (≈ 32 µg/mL); in assay [17], 5.64 µM (≈ 7.99 µg/mL).
As for `C[C@@H](O)[C@H](NC(=O)[C@H](Cc1c[nH]c2ccccc12)NC(=O)[C@H](Cc1c[nH]c2ccccc12)NC(=O)[C@H](Cc1ccc(O)cc1)NC(=O)[C@H](CO)NC(=O)[C@H](Cc1c[nH]c2ccccc12)NC(=O)[C@@H](N)Cc1c[nH]c2ccccc12)C(=O)N[C@@H](CCC(N)=O)C(=O)N[C@@H](Cc1c[nH]c2ccccc12)C(N)=O` [WWSYWWTQW], the MIC was no less than 87.5 µM in assay [21]; no less than 87.5 µM in assay [22]; no less than 87.5 µM in [23]; no less than 87.5 µM in assay [24]; no less than 87.5 µM in [25]; greater than 87.5 µM in assay [26]. Further, the MIC in assay [27], in assay [28] and in assay [29] was no less than 87.5 µM in each case.
